PubChem BioAssay AID488879 (Sanford-Burnham Center for Chemical Genomics, 2010)
Active and inactive are the calls of the source. The rule behind the calls is not given here.

Target: alkaline phosphatase, placental type (Homo sapiens)
Assay: PLAP enzyme inhibitors, dose response, selectivity assay for mouse IAP inhibitor project, biochemical, uHTS hits (AID 488879)
Conditions: purified human placental alkaline phosphatase, enzymatic inhibition

Oc1cc(O)c2c(c1)O[C@H](c1ccc(O)c(O)c1)[C@@H](O)C2
IC50: > 100 µM (inactive)

C=CCn1cc(CN2CCC(C(=O)Nc3cccc(-c4cccc(Cl)c4)c3)CC2)c(C)n1
IC50: 34.3 µM

O=C(CCNS(=O)(=O)c1ccc2[nH]c(=O)oc2c1)Nc1ccccc1
IC50: 42.5 µM

COc1ccc(CN2C3CCCC2CC(NC(=O)Nc2cccc(C)c2)C3)cc1 (configuration not stated)
IC50: 30.5 µM

FC(F)Oc1ccc(NC(=S)NC2CCSc3ccccc32)cc1 (configuration not stated)
IC50: > 100 µM (inactive)

Cc1ccc(Cl)c2c1=NC(=O)C=2c1[nH]c(=S)[nH]c1O
IC50: > 100 µM (inactive)

CCOc1ccc(S(=O)(=O)Nc2cc(Sc3ncn[nH]3)c3oc(=O)sc3c2)cc1
IC50: > 100 µM (inactive)

S=C(NCCC(c1ccccc1)c1ccccc1)Nc1ccc(Cl)cc1
IC50: > 100 µM (inactive)

Cc1cccnc1Nc1nc(-c2ccc(O)c(O)c2)cs1
IC50: > 100 µM (inactive)

O=C(NN1C(=O)/C(=C/c2ccc(O)c(O)c2)SC1=S)c1ccccc1
IC50: > 100 µM (inactive)

C#CCOCCOCCOCCNc1nc(N2CCN(C(=O)CCCCCCCCCCNC(=O)Cn3cc(C[C@@H](C)O)nn3)CC2)nc(N2CCN(C(=O)CCCCCCCCCCNC(=O)[C@H](CCCCN)n3cc(C[C@@H](C)CC)nn3)CC2)n1
IC50: > 100 µM (inactive)

C#CCOCCOCCOCCNc1nc(N2CCN(C(=O)CCCCCCCCCCNC(=O)[C@@H](CCSC)n3cc(CCO)nn3)CC2)nc(N2CCN(C(=O)CCCCCCCCCCNC(=O)[C@H]([C@@H](C)CC)n3cc(CCCCN=C(N)N)nn3)CC2)n1
IC50: > 100 µM (inactive)

O=C(NCCCCc1ccccc1)NC[C@@H]1CC[C@@H](Cc2ccc(-c3ccccc3)cc2)O1
IC50: 6.58 µM

O=C(CCN1C(=O)/C(=C/c2ccco2)SC1=S)Nc1ccc(O)cc1C(=O)O
IC50: > 100 µM (inactive)

CCN1/C(=C/C=C/c2sc3ccccc3[n+]2CC)Sc2ccccc21
IC50: > 100 µM (inactive)

O=C(c1c(O)cc(O)cc1O)C1c2c(cc(O)c3c2O[C@H](c2ccc(O)cc2)[C@@H](O)C3)OC1c1ccc(O)cc1 (some centres not stated)
IC50: 23.2 µM

N#Cc1c(SCC(=O)Nc2nc3ccccc3s2)sc2c(O)cc(=O)[nH]c12
IC50: > 100 µM (inactive)

Cc1ccc(S(=O)(=O)N2CCC(C(=O)Nc3ccc(C(C)C)cc3)CC2)cc1
IC50: > 100 µM (inactive)

Cn1nc([N+](=O)[O-])nc1S(C)(=O)=O
IC50: > 100 µM (inactive)

NS(=O)(=O)c1cccc(NC(=O)CSc2nnc(-c3ccncc3)n2C2CC2)c1
IC50: > 100 µM (inactive)

Cc1cc(O)c(Sc2ncn[nH]2)cc1NS(=O)(=O)c1ccc(Cl)cc1
IC50: > 100 µM (inactive)

OCCCN1c2ccccc2Nc2nnc(-c3ccccc3)cc21
IC50: > 100 µM (inactive)

Cc1ccc(N/C(N)=N/c2nc(C)cc(N3CCCCC3)n2)c(C)c1
IC50: 26.3 µM

O=S(=O)(c1ccc(NC(=S)N/N=C/c2ccc(O)c(O)c2)cc1)N1CCOCC1
IC50: 2.35 µM

CCN(c1ccccc1)S(=O)(=O)c1ccc2[nH]c(=O)[nH]c2c1
IC50: 62.6 µM

N#Cc1c(SCC(=O)Nc2nncs2)sc2c(O)cc(=O)[nH]c12
IC50: > 100 µM (inactive)

O=C1/C(=C\c2cccc(O)c2O)SC(=S)N1Cc1ccccc1
IC50: > 100 µM (inactive)

O=C(Nc1cccc(-c2cccc(Cl)c2)c1)C1CCN(C2CCC2)CC1
IC50: 10.2 µM

Clc1ccc(C(c2ccc(Cl)cc2)n2cc[n+](CC(OCc3ccc(Cl)cc3Cl)c3ccc(Cl)cc3Cl)c2)cc1 (configuration not stated)
IC50: > 100 µM (inactive)

Cc1ccc(/C=C2\SC(=S)N(/N=C/c3cc([N+](=O)[O-])ccc3O)C2=O)o1
IC50: > 100 µM (inactive)

CCCCCOc1ccc(C(=O)CCC(=O)NNC(=O)c2ccncc2)cc1
IC50: > 100 µM (inactive)

COc1cc(NS(=O)(=O)c2ccc(NC(=S)NC(=O)/C=C/c3ccco3)cc2)ncn1
IC50: 55.1 µM

S=C(NCc1ccc(Cl)cc1Cl)NC1CCCCC1
IC50: > 100 µM (inactive)

COC(=O)c1ccc(NS(=O)(=O)c2ccc3[nH]c(=O)oc3c2)cc1
IC50: > 100 µM (inactive)

NS(=O)(=O)c1ccc2c(c1)oc(=O)c1cc(S(N)(=O)=O)ccc12
IC50: > 100 µM (inactive)

O=C(O)CCCN1C(=O)/C(=C/C=C/c2ccco2)SC1=S
IC50: > 100 µM (inactive)

CCn1cc(CN2CCC(C(=O)Nc3cccc(-c4cccc(Cl)c4)c3)CC2)c(C)n1
IC50: > 100 µM (inactive)

COc1cc(NC(=S)NCCC(c2ccccc2)c2ccccc2)cc(OC)c1
IC50: > 100 µM (inactive)

S=C(NCCC(c1ccccc1)c1ccccc1)Nc1cccc(Cl)c1
IC50: 72.7 µM

COc1cc(/C=N/NC(=O)c2cc(O)cc(O)c2)ccc1OC(=O)c1ccccc1
IC50: 70.1 µM

CCn1nc(C)c(CN2CCC(C(=O)Nc3cccc(-c4cccc(Cl)c4)c3)CC2)c1C
IC50: > 100 µM (inactive)

COc1cc(/C=N/N2C(=O)CSC2=S)ccc1O
IC50: > 100 µM (inactive)

FC(F)Sc1ccc(NC(=S)NC(c2ccccc2)c2ccccc2)cc1
IC50: > 100 µM (inactive)

COc1cccc(NC(=S)NCCC(c2ccccc2)c2ccccc2)c1
IC50: > 100 µM (inactive)

O=C(Nc1ccc(Cl)cc1)NC1CCCCC1Cc1ccco1 (configuration not stated)
IC50: > 100 µM (inactive)

CCCn1ncc(CN2CCC(C(=O)Nc3cccc(-c4cccc(F)c4)c3)CC2)c1C
IC50: > 100 µM (inactive)

O=C(NC1CCCCC1)Oc1cc2oc(=O)sc2cc1Cl
IC50: 5.95 µM

Cc1ccc(CNC(=S)NC2CCC(C(C)(C)C)CC2)cc1 (configuration not stated)
IC50: > 100 µM (inactive)

O=C1CC(c2ccc(O)c(O)c2)Oc2c1ccc(O)c2O (configuration not stated)
IC50: > 100 µM (inactive)

COc1ccc(N2C(=O)/C(=C/c3ccco3)C(=O)NC2=S)cc1
IC50: 64.9 µM

COC(=O)C/C=N/N=C1/NC(=O)/C(=C/C(=O)O)S1
IC50: 8.44 µM

CN(c1ccccc1C(=O)O)S(=O)(=O)c1ccc2c3c(cccc13)C(=O)N2
IC50: > 100 µM (inactive)

O=C(COC(=O)c1ccccc1)Nc1ncc([N+](=O)[O-])s1
IC50: 60.2 µM

CC(/C=C/C1(O)C(C)CC(=O)CC1(C)C)OC1OC(CO)C(O)C(O)C1O (configuration not stated)
IC50: > 100 µM (inactive)

Cc1cc(Cn2nc(-c3ccccc3)cc2C(=O)NCc2cccc(C(F)(F)F)c2)on1
IC50: > 100 µM (inactive)

CN1C(=O)/C(=C/C=C/c2ccco2)C(=O)NC1=S
IC50: 24.4 µM

N#C/C(=C\c1ccc(O)c(O)c1)C(=O)Nc1cccc2ncccc12
IC50: 7.32 µM
